Laboratory results as given in patent publication US20130281512A1, “AGENTS FOR TREATING DISORDERS INVOLVING MODULATION OF RYANODINE RECEPTORS” (LES LABORATOIRES SERVIER, priority 2012, published 2013).
pEC50: −log10 of the molar value.

How the values were obtained:
[1] = test system: ischemia-reperfusion induced heart failure; assay: Model of chronic post-ischemic heart failure in rat (ischemia-reperfusion injury); format: in vivo; conditions: 5 mg/kg/d in drinking water, 3 months
Method: Chronic heart failure was induced in male wistar rats (224-240 g, 10-11 weeks of age) by ischemia-reperfusion (I/R) injury. For I/R protocol, the left anterior descending (LAD) coronary artery was occluded for 1 h. Drug treatment (5 mg/kg/d or 10 mg/kg/d in drinking water) was initiated 1 week after reperfusion and was maintained for a 3 month study period. […] Cardiac specimens were also analyzed to assess hypertrophy and collagen content. The study design is depicted in FIG. 3. Experiments were performed in a blinded manner. On parameters measured over time, comparison of Sham versus Vehicle and comparison of drug treatments are analyzed by 2 way ANOVAs with repeated measures. On parameters measured at sacrifice and morphometry, comparisons of Sham versus Vehicle are analyzed by t-test and comparisons of drug treatments by 1-way ANOVA followed by Dunnett test.

human hepatocytes = assay: Metabolic stability in human hepatocytes; format: in vitro ADME; conditions: for Clint: 4.00E+05 cells/ml, 10^-7 M
Method: (§1) Compound solubilization: Stock solutions were made in DMSO, and working solutions in William medium containing 1/10 rat plasma or 1/4 human plasma.
(§2) Metabolic stability determination: Compounds were incubated at 10^−7 M with isolated hepatocytes (6E+5 cells/ml for rat hepatocytes and 4E+5 cells/ml for human hepatocytes) at 37° C. in plasma from the same species diluted in Wiliams medium (1/10 dilution for rat and 1/4 dilution for human). Sampling times were performed at 0, 10, 20, 30, 60 and 120 min and enzymatic reaction stopped with methanol (v/v). Proteins were precipitated by centrifugation and the supernatant was analyzed by LC/MS/MS. Clint expressed as ml/min/g protein were calculated as for hepatic microsomes using a ratio of 0.134 mg protein/ml for 4E+5 cells/ml for human and 0.201 mg protein/ml for 6E+5 cells/ml for rat. The presence of the reference drug and the potential metabolite was checked by LC/MS/MS during the assay in each sample.

[2] = Metabolic stability in rat hepatic microsomes (Clint, predicted MF %); format: in vitro ADME; conditions: for Clint_mic rat (in vitro intrinsic clearance): 10^-7 M, 0.33 mg protein/ml, NADPH; for MF mic % (metabolic bioavailability): predicted from Clint assuming total absorption
Method: (§3) Compound solubilization: Stock solutions were made in DMSO, and working solutions in water containing 1 mg/ml BSA.
(§4) Prediction of metabolic bioavailability: Metabolic bioavailability predictions (MF %) were based on in vitro metabolic stability measurements with hepatic microsomes assuming total absorption. Briefly, unchanged drugs were quantified by LC-MS-MS following incubation (10^−7M) with rat and human hepatic microsomes (0.33 mg protein/ml) after 0, 5, 15, 30 and 60 min of incubation in presence of NADPH (1 mM). Enzymatic reaction was stopped with methanol (v/v) and proteins were precipitated by centrifugation. The in vitro intrinsic clearances (Clint_mic) expressed as ml/min/g protein were the slope (after LN linearization) of the unchanged drug remaining concentration versus incubation time. In vitro Clint were then scaled up to in vivo whole body (vivoClint) using 0.045 mg prot/kg of liver and liver weight of 11 g for the rat and 1.2 kg for Man.

[3] = Metabolic stability in human hepatic microsomes (Clint, predicted MF %); format: in vitro ADME; conditions: for Clint_mic man (in vitro intrinsic clearance): 10^-7 M, 0.33 mg protein/ml, NADPH; for MF mic % (metabolic bioavailability): predicted from Clint assuming total absorption
Method: as §3, §4

[4] = Metabolic stability in rat microsomes (% remaining); format: in vitro ADME
Method: (§5) 0.1M Tris HCl buffer at pH 7.4 containing 5 mM EDTA.
(§6) To a 50 mL falcon tube containing 2.79 mL of dilution buffer were added 0.429 mL of NADPH-regenerating soln. A and 0.079 mL of NADPH-regenerating soln. B […]
(§7) […] A 50 mL falcon tube containing 3.32 mL of dilution buffer was prewarmed at 37° C. for 15 min. (at least 10 min.) 0.178 mL of microsome (24.6 mg/mL) were added to the prewarmed dilution buffer. The protein concentration of this microsome preparation was 1.25 mg/mL.
(§8) Sample (Test Compound)—Original and Intermediate Stock Solutions:
(§9) 100 μM intermediate solution of the test compound from the original stock solution were prepared using the dilution buffer. A 5 μM solution was prepared by diluting the 100 μM intermediate solution using dilution buffer.
(§10) (The experiments were conducted in 1.5 mL eppendorf micro centrifuge tubes) 0 minutes incubation. Procedure: a. Add 100 μL of prewarmed microsomes b. Add 50 μL of 5 μM solution of the test compound. c. Add 500 μL of cold stop solution (ice cold Methanol) d. Add 100 μL of NADPH cofactor solution to the eppendorf. a. Vortex mix the eppendorf. […]
(§11) b. Add 100 μL of NADPH cofactor solution to the eppendorf. c. Add 50 μL of 5 μM solution of the test compound. d. Add 100 μL of prewarmed microsomes e. Incubate the eppendorf at 37° C. 300 rpm for ‘t’ min. on a thermomixer. f. Remove the eppendorf from thermomixer g. Add 500 μL of cold stop solution (ice cold Methanol) h. Vortex mix the eppendorf.
(§12) Both the ‘0’ and ‘t’ minutes incubated samples were centrifuged at 15, 000 rcf at 4° C. for 15 min. 500 μL of the supernatant solution was removed and subject it to LC/MS analysis (SIM—Selected Ion Monitoring) […]
(§13) Results are expressed as % test compound remaining=(MS Area response of T min sample/MS Area response of ‘0’ min sample)*100. The MS area used is an average of duplicate injections.
(§14) Time points=0, 15, 30 and 60 min. for each test compound
(§15) 2 μM Imipramine—5 min. and 2 μM Imipramine—15 min. incubation was used as a positive control for the rat and mouse liver microsome stability experiments.

[5] = Metabolic stability in mouse microsomes (% remaining); format: in vitro ADME
Method: as §5, §6, §7, §8, §9, §10, §11, §12, §13, §14, §15

rat hepatocytes = assay: Metabolic stability in rat hepatocytes; format: in vitro ADME; conditions: for Clint: 6.00E+05 cells/ml, 10^-7 M
Method: as §1, §2

PKA-phosphorylated RyR2 = molecular target: T1, PKA-phosphorylated RyR2 (Homo sapiens, UniProt Q92736); assay: Calstabin2 rebinding assay: binding of calstabin2 to PKA-phosphorylated RyR2 (cardiac SR, immunoblot); conditions: 100 nM compound; immunoblot with calstabin2 antibody
T1 construct: Cardiac SR membranes were prepared as previously described; from tissue; host or cells: cardiac sarcoplasmic reticulum (heart muscle microsomes)
Method: Cardiac SR membranes were prepared as previously described (Marx et al., 2000; Kaftan et al., Circ. Res., 1996, 78:990-97). Immunoblotting of microsomes (50 μg) was performed as described, with anti-calstabin antibody (1:1,000) (Jayaraman et al., J. Biol. Chem., 1992, 267:9474-77) for 1 hr at room temperature (Reiken et al., Circulation, 107:2459-66, 2003). After incubation with HRP-labeled anti-rabbit IgG (1:5,000 dilution; Transduction Laboratories, Lexington, Ky.), the blots were developed using ECL (Amersham Pharmacia, Piscataway, N.J.) and detected on x-ray film, or exposed to secondary antibodies labeled with infrared Dye and visualized on equipment from Li-Cor Biosciences (model Odyssey). Unless otherwise stated, compounds were tested at a concentration of 100 nM. A representative calstabin2 binding assay is presented below.
A. PKA phosphorylation of cardiac sarcoplasmic reticulum (CSR)
B. Reaction mixture was set up in 1.5 ml microfuge tube. 200 μg of cardiac SR were added to a reaction mix of kinase buffer, PKA and ATP to a final volume of 100 (Reaction mix below). ATP was added last to initiate the reaction.
20 μl Sample (cardiac SR, 2 or 10 μg/μl) 10 μl=10× Kinase buffer (80 mM MgCl2, 100 mM EGTA, 500 mM Tris/PIPES), pH=7.0
20 μl PKA (2units/ul) (Sigma # P2645)
40 μl=distilled H2O • 1. The tubes were incubated at 30° C. for 30 minutes. • 2. The reaction mix was then transferred to 0.5 ml thick walled glass tubes. • 3. The glass tubes containing the reaction mix were centrifuged for 10 min at 50,000×g in Sorvall Centrifuge RCM120EX using S120AT3 rotor. Centrifugation at 50,000×g for 10 min is sufficient to isolate the microsomes. • 4. The resulting pellet was washed 4 times with binding buffer (10 mM Imidazol 300 mM Sucrose, pH=7.4). Each time 100111 of 1× binding buffer was added to the tube to wash the pellet. The pellet was resuspended by flushing up and down using the pipette tip. After the last spin 501.11 of binding buffer was added and the pellets from all tubes were pooled. The reaction was stored at −20° C. • 5. Phosphorylation was confirmed by separating approximately 10 μg of CSR by 6% Polyacylamide gel electrophoresis (PAGE) and analyzing the immunoblots for both total RyR (5029 Ab, 1:3000 dilution or Monoclonal Ab from Affinity Bioreagents, Cat # MA3-916, 1:2000 dilution) and PKA phosphorylated RyR2 (P2809 Ab, 1:10000 dilution). • 6. Aliquots can be stored at −80 C.
C. Calstabin Rebinding Assay
• 1. PKA-phosphorylated CSR (approximately 20 μg) was incubated with 250 nM Calstabin 2 in 100111 binding buffer (as described above) with or without compounds. • 2. […] Calstabin2 binding was detected with anti-FKBP (Jayaraman et al., J. Biol. Chem. 1992; 267:9474-77, 1:2000) primary antibody and appropriate secondary antibody.

PKA-phosphorylated RyR1 = PKA-phosphorylated RyR1 (Homo sapiens, UniProt P21817); assay: biochemical
Method: Immunoblotting of microsomes (50 μg) was performed as described, with anti-calstabin1 antibody (Zymed) (1:1,000). The blots were developed and quantified as described in Example 2.

T1 sequence (Q92736 whole entry): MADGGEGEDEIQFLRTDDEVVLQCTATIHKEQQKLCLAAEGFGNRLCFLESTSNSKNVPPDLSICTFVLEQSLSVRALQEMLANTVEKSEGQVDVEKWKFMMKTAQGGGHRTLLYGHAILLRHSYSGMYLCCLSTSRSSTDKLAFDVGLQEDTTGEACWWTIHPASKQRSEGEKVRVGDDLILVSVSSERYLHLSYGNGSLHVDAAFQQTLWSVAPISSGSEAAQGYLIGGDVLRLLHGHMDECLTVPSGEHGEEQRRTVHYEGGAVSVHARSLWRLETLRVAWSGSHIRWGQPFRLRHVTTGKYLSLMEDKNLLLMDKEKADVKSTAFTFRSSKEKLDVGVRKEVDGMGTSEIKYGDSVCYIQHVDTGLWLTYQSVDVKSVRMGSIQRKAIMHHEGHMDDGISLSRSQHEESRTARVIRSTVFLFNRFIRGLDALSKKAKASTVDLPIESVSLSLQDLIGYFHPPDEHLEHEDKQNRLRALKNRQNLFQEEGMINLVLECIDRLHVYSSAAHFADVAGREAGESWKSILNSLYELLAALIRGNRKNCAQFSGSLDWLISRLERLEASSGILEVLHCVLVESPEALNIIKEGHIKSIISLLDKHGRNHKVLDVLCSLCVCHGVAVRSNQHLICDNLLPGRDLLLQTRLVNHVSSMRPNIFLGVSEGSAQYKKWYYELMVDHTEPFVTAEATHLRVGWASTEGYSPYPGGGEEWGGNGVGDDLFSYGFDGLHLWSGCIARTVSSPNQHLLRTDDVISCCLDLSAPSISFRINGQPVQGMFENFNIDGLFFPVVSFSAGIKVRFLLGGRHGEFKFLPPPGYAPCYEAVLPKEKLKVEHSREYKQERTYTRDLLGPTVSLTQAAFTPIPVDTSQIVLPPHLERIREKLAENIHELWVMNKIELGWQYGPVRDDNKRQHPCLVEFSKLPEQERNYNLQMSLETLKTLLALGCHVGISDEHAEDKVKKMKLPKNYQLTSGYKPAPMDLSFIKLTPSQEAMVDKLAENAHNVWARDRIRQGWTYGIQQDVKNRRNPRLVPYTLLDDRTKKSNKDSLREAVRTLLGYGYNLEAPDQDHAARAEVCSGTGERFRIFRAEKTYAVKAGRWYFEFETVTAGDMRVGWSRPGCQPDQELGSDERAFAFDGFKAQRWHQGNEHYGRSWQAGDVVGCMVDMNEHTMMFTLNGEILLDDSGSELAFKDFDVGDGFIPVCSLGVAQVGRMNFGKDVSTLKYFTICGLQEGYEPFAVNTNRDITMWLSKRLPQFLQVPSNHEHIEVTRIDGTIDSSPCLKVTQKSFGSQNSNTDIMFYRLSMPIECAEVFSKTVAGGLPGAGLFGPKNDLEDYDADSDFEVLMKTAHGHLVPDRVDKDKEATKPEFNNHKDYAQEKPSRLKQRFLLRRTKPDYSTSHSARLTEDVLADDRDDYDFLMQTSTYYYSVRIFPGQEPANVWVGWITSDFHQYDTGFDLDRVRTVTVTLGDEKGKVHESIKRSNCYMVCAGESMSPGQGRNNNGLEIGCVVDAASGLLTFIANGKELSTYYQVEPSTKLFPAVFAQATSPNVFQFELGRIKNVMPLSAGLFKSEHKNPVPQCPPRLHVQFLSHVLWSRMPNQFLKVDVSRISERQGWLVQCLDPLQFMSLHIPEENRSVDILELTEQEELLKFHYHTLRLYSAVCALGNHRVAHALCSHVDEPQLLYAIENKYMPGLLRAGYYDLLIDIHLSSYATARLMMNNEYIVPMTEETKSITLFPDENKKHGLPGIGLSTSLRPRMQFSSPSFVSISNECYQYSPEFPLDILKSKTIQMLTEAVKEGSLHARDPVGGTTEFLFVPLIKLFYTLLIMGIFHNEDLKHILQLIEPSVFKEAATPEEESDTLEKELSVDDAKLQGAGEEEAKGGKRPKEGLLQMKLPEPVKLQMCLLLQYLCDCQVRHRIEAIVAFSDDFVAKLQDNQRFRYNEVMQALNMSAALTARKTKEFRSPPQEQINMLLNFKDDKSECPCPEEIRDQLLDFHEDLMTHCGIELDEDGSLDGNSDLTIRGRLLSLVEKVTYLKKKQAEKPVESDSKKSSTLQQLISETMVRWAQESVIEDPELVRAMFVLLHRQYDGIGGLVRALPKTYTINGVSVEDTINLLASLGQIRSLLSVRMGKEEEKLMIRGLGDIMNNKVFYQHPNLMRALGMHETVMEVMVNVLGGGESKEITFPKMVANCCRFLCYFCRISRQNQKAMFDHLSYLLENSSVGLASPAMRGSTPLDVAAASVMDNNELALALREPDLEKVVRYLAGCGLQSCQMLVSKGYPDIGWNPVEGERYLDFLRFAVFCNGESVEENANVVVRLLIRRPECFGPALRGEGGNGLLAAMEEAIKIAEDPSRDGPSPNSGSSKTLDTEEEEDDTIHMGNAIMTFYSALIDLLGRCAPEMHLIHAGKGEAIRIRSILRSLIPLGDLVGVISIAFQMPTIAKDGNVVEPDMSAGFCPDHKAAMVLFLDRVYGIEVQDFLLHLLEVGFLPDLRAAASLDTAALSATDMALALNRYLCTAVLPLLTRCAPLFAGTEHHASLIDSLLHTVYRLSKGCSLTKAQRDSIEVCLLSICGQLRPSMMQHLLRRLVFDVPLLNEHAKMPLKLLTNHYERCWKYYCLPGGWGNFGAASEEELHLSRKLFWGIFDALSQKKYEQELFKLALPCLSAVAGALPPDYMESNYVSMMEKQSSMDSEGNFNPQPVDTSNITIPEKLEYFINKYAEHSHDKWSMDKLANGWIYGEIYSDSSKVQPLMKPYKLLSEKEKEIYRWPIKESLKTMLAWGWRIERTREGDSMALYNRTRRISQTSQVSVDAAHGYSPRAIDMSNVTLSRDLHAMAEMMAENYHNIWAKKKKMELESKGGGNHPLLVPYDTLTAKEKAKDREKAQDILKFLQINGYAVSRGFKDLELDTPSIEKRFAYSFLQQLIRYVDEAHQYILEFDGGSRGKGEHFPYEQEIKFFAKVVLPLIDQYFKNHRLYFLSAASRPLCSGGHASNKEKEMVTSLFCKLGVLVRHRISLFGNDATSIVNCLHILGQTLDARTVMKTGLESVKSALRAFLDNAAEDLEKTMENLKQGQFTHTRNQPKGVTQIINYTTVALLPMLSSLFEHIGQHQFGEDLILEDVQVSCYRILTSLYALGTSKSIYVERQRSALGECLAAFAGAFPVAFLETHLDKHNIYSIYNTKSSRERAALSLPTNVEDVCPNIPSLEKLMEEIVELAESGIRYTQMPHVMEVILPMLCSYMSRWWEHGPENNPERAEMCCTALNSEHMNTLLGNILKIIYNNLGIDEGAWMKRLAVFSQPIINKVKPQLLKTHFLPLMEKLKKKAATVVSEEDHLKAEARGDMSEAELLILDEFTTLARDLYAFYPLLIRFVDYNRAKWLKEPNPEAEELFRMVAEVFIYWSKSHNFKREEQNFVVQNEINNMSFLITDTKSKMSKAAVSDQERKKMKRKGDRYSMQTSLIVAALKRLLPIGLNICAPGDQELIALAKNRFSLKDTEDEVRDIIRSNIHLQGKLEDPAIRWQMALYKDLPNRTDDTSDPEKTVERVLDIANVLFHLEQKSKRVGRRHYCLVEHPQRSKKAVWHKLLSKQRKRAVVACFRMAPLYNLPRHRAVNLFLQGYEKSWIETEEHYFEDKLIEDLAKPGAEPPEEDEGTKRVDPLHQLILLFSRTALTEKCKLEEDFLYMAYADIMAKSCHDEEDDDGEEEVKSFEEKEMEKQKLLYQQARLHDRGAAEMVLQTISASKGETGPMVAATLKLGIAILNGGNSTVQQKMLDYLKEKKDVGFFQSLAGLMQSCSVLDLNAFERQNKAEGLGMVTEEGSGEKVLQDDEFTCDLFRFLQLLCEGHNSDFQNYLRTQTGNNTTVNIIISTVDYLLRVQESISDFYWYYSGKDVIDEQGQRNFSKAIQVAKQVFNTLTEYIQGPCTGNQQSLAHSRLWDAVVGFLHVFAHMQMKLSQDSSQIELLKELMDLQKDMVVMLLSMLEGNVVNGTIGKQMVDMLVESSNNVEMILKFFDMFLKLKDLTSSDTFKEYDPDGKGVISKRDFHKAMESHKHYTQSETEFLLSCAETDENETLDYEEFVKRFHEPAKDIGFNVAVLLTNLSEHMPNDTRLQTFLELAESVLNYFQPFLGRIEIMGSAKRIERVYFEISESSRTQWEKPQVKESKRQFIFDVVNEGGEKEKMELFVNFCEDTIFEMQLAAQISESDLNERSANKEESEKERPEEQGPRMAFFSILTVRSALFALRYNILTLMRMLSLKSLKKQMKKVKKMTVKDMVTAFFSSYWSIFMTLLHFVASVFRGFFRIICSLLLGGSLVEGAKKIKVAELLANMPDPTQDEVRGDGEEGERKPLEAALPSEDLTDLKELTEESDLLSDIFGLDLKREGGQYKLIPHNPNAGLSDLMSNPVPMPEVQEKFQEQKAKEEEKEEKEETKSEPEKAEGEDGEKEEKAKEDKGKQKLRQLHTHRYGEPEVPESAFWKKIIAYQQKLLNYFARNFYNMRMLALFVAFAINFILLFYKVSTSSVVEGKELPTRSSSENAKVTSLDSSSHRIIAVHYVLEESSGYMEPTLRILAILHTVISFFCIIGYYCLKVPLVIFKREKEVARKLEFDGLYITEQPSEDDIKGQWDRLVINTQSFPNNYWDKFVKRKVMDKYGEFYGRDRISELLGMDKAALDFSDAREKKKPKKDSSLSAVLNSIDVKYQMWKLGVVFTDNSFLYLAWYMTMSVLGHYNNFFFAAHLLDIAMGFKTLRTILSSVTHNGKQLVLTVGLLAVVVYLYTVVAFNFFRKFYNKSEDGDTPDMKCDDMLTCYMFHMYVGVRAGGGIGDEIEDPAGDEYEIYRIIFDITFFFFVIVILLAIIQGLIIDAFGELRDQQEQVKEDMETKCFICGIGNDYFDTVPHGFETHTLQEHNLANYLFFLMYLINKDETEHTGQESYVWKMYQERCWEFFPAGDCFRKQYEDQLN
T1 sequence (P68106 whole entry partner): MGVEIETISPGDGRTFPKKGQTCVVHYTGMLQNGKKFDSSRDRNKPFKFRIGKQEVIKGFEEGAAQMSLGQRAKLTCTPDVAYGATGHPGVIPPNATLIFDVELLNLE

| Structure (SMILES) | MF human % (human hepatocytes) | Clint (human hepatocytes) | Class (metabolic bioavailability) [2] | Clint_mic rat (in vitro intrinsic clearance) [2] | MF mic % (metabolic bioavailability) [2] | Class (metabolic bioavailability) [3] | Clint_mic man (in vitro intrinsic clearance) [3] | MF mic % (metabolic bioavailability) [3] | % remaining ([4]; 15 min) | % remaining ([4]; 30 min) | % remaining ([4]; 1 h) | % remaining ([5]; 15 min) | % remaining ([5]; 30 min) | % remaining ([5]; 1 h) | MF rat % (rat hepatocytes) | Clint (rat hepatocytes) | binding of calstabin2 to PKA-phosphorylated RyR2 (PKA-phosphorylated RyR2) | also measured |
| --- | --- | --- | --- | --- | --- | --- | --- | --- | --- | --- | --- | --- | --- | --- | --- | --- | --- | --- |
| COc1ccc2c(c1)CN(CC(=O)O)CCS2 [A] | – | – | – | – | – | – | – | – | – | – | – | – | – | – | – | – | – | systolic and diastolic cardiac function [1]: failed to improve |
| COc1ccc2c(c1)CN(Cc1ccc(O)cc1)CCS2 [B] | 3% | 693 ml/min/gprot | very low | 823 ml/min/gprot | 5% | very low | 285 ml/min/gprot | 6% | 1% | 0% | 0% | 0% | 0% | 0% | 3% | 1334 ml/min/gprot | – | – |
| COC(=O)c1cccc(CN2CCSc3ccc(OC)cc3C2)c1 [Compound 2, Methyl 3-((7-methoxy-2,3-dihydrobenzo[f][1,4]thiazepin-4(5H)-yl)methyl)benzoate] | – | – | – | – | – | – | – | – | – | – | – | – | – | – | – | – | prevent dissociation of calstabin2 from PKA-phosphorylated RyR2, and/or enhance the (re)binding of calstabin2 to PKA-phosphorylated RyR2 | – |
| COC(=O)c1ccc(CN2CCSc3ccc(OC)cc3C2)cc1 [Compound 3, Methyl 4-((7-methoxy-2,3-dihydrobenzo[f][1,4]thiazepin-4(5H)-yl)methyl)benzoate] | – | – | – | – | – | – | – | – | – | – | – | – | – | – | – | – | prevent dissociation of calstabin2 from PKA-phosphorylated RyR2, and/or enhance the (re)binding of calstabin2 to PKA-phosphorylated RyR2 | – |
| COc1ccc2c(c1)CN(Cc1cccc(C(=O)O)c1)CCS2 [Compound 4, 3-((7-Methoxy-2,3-dihydrobenzo[f][1,4]thiazepin-4(5H)-yl)methyl)benzoic acid] | – | – | – | – | – | – | – | – | – | – | – | – | – | – | – | – | prevent dissociation of calstabin2 from PKA-phosphorylated RyR2, and/or enhance the (re)binding of calstabin2 to PKA-phosphorylated RyR2 | pEC50 (PKA-phosphorylated RyR1): ~6.82; binding of calstabin1 to PKA phosphorylated RyR1 (PKA-phosphorylated RyR1; indicated concentrations, immunoblot with calstabin1 antibody): prevented the dissociation of calstabin1 from PKA phosphorylated RyR1 and/or enhanced the (re)binding of calstabin1 to PKA-phosphorylated RyR1 in a dose-dependent manner |
| COc1ccc2c(c1)CN(Cc1ccccc1)CCS2 [Compound C] | 16% | 100 ml/min/gprot | very low | 1926 ml/min/gprot | 2% | very low | 1326 ml/min/gprot | 2% | 0% | 0% | 0% | 0% | 0% | 0% | 2% | 2610 ml/min/gprot | – | – |
